Like-named read-outs stand apart in the source and are kept apart here.
Experiments:
Assay type in all cases: cell-based
SPL [1] = target: T1, SPL (Mus musculus, UniProt Q8R0X7); experiment: SPA using known SPL inhibitor: accumulation of 3H-dhS1P in IT-79MTNC3 cells; conditions: for EC50: read-out: EC50, activity of inhibiting the SPL activity
T1 construct: IT-79MTNC3 cells which are a mouse thymic epithelial cell line can be appropriately selected using the expression of an SPL protein as an index; host or cells: IT-79MTNC3 (mouse thymic epithelial cell line)
T1 sequence (Q8R0X7 1-568): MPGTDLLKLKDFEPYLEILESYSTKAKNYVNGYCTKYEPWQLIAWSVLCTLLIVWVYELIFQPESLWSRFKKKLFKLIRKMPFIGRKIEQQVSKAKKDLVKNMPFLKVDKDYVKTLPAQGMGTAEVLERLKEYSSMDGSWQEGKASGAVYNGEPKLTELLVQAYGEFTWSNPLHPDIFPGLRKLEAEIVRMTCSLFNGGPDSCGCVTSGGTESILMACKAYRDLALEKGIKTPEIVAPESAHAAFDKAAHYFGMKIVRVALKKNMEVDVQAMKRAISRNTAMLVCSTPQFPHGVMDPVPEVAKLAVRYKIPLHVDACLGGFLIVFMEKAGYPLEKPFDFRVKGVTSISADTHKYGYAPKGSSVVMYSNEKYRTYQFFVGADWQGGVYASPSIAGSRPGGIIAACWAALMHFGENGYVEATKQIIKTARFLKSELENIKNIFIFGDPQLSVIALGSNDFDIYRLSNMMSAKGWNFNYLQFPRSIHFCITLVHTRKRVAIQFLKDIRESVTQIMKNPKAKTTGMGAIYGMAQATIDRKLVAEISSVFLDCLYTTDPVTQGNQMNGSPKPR
Description: A mouse thymic epithelial cell line (IT-79MTNC3 cells, The Cell Bank Division of Japan Health Sciences Foundation) was cultured using Dulbecco's Modified Eagle Medium (DMEM, Invitrogen) containing 10% fetal bovine serum (FBS) (DMEM-10% FBS) at 37° C. in the presence of 5% CO2. When the cells were used for transfection or assay, the cells were detached with 0.05% trypsin-EDTA (Invitrogen), followed by centrifugation, thereby collecting the cells. When the cells were treated with a compound or used for incorporating ^3H-dhSph, DMEM containing 0.1% bovine serum albumin (BSA, Sigma) (DMEM-0.1% BSA) or vitamin B6 group-depleted Dulbecco's Modified Eagle Medium (VB6-free DMEM, Cell Science & Technology Institute, Inc.) containing 0.1% BSA (VB6-free DMEM-0.1% BSA) was used.
In order to evaluate the activity of a test compound for accumulating ^3H-dhS1P, IT-79MTNC3 cells were suspended in DMEM-10% FBS containing 25 μM fumonisin B1, and seeded in a 96-well plate for cell culture at 1×10^4 cells/well, and then cultured at 37° C. in the presence of 5% CO2 for a whole day and night. On the next day, the culture supernatant was first removed, and then, 40 μL of DMEM-0.1% BSA (or VB6-free DMEM-0.1% BSA) containing a serially diluted test compound was added thereto, and the cells were cultured at 37° C. in the presence of 5% CO2 for 4.5 hours. Thereafter, 10 μL of DMEM-0.1% BSA (or VB6-free DMEM-0.1% BSA) containing 83 nM ^3H-dhSph and 5 μM dhSph was added thereto, and the cells were cultured at 37° C. in the presence of 5% CO2 for 30 minutes. After the culture supernatant was removed, 70 μL of a cell lysis buffer was added thereto, and the resulting mixture was left at room temperature for 2 hours. A 50 μL portion of the resulting cell lysate was mixed with SPA beads (obtained by being diluted to 8 times such that glycerol was contained at 50% in the final concentration), which were previously dispensed into a white 96-well plate at 20 μL/well. Then, the plate was covered with a transparent plate seal and left overnight at room temperature under shading. On the next day, the radioactivity thereof was measured using a microplate scintillation counter. In the case of using VB6-free DMEM, before the culture medium containing the test compound was added, washing was carried out twice with 150 μL of VB6-free DMEM-0.1% BSA, thereby preventing the carryover of the vitamin B6 group contained in DMEM used when seeding.

SPL [2] = target: T1, SPL; experiment: Measurement of intracellular S1P by LC-MS in IT-79MTNC3 cells
Description: In order to evaluate the activity of a test compound for accumulating S1P, IT-79MTNC3 cells were suspended in DMEM-10% FBS containing 25 μM fumonisin B1, and seeded in a 24-well plate for cell culture at 5×10^4 cells/well, and then cultured at 37° C. in the presence of 5% CO2 for a whole day and night. On the next day, the culture supernatant was first removed, and then, 450 μL of DMEM-0.1% BSA (or VB6-free DMEM-0.1% BSA) containing a serially diluted test compound was added thereto, and the cells were cultured at 37° C. in the presence of 5% CO2 for 4.5 hours. Thereafter, 50 μL of DMEM-0.1% BSA (or VB6-free DMEM-0.1% BSA) containing 10 μM Sph (Enzo Life Sciences) was added thereto, and the cells were cultured at 37° C. in the presence of 5% CO2 for 30 minutes. After the culture supernatant was removed, the cells were washed with PBS and collected. Then, 150 μL of a mixed solution of acetonitrile and 1 M hydrochloric acid (acetonitrile:hydrochloric acid=4:1) was added to the cells, and the resulting mixture was subjected to an ultrasonic treatment using a sonicator. The amount of S1P was measured by LC-MS by Mitsubishi Chemical Medience Corporation. In the case of using VB6-free DMEM, before the culture medium containing the test compound was added, washing was carried out twice with 600 μL of VB6-free DMEM-0.1% BSA, thereby preventing the carryover of the vitamin B6 group contained in DMEM used when seeding.

SPL [3] = target: T1, SPL; experiment: Measurement of SPL activity in lysate of cells treated with compound
Description: In order to prepare a lysate of cells treated with a test compound, IT-79MTNC3 cells were suspended in DMEM-10% FBS containing 25 μM fumonisin B1 and seeded in a 12-well plate for cell culture at 1×10^5 cells/well, and then cultured at 37° C. in the presence of 5% CO2 for a whole day and night. On the next day, the culture supernatant was first removed, and then, 500 μL of DMEM-0.1% BSA (or VB6-free DMEM-0.1% BSA) containing a serially diluted test compound was added thereto, and the cells were cultured at 37° C. in the presence of 5% CO2 for 4.5 hours. Thereafter, 55 μL of DMEM-0.1% BSA (or VB6-free DMEM-0.1% BSA) containing 10 μM dhSph was added thereto, and the cells were cultured at 37° C. in the presence of 5% CO2 for 30 minutes. After washing the IT-79MTNC3 cells with PBS, the cells were collected. Then, 150 μL of a homogenization buffer was added to the cells, and the resulting mixture was subjected to an ultrasonic treatment using a sonicator, followed by centrifugation at 4° C. for 3 minutes at 1,000 g, and the resulting supernatant was used as a cell lysate. The quantitative determination of protein by the Bradford method was carried out using a portion of the cell lysate. […]
In order to measure the SPL activity in the lysate prepared using the cells treated with the compound, the cell lysate was diluted to 1 mg protein/mL with a homogenization buffer, and the diluted solution was mixed with ^3H-dhS1P (3.4 nM) as a substrate and a reaction buffer (a 0.1 M potassium phosphate solution (pH-7.4), 25 mM NaF, 5 mM Na3VO4, 1 mM EDTA, 1 mM DTT, 0.1% Triton X-100, 2 μM cold dhS1P) to make the final volume 50 μL. […] A 30 μL portion of the resulting organic layer was taken and mixed with 5 mL of the liquid scintillator, and the radioactivity thereof was measured using a liquid scintillation counter. The obtained count was assumed to reflect the amount of degradation products by the SPL reaction, and the SPL activity of each sample was calculated as a ratio of that in the group without treatment with the compound.

[4] = in the presence of 100 nM pyridoxine

Row | effective concentration in SPA as compared with normal DMEM (SPL [1]; VB6-free DMEM, FIG. 5(1)) | EC50 (SPL [1]; [4]) [µM] | EC50 (SPL [1]; in the presence of 1 μM pyridoxine) [µM] | EC50 (SPL [1]; normal DMEM (containing about 20 μM pyridoxine)) [µM] | response by SPA (accumulation of 3H-dhS1P) (SPL [1]; normal conditions (DMEM), FIG. 4(1)) | inhibitory activity against the SPL activity (SPL [1]; in the presence 1 μM pyridoxine) | inhibitory activity against the SPL activity (SPL [1]; normal DMEM) | SMILES | activity on amount of intracellular S1P (SPL [2]; VB6-free DMEM, FIG. 5(2)) | activity on amount of intracellular S1P (SPL [2]; normal conditions (DMEM), FIG. 4(2)) | activity on SPL activity in the lysate (SPL [3]; VB6-free DMEM, FIG. 5(3)) | activity on SPL activity in the lysate (SPL [3]; normal conditions (DMEM), FIG. 4(3)) | activity in SPA (accumulation of 3H-dhS1P) (SPL [1]; VB6-free DMEM, FIG. 5(1))
1 | significantly decreased | 0.027 | 1.6 | 46 | concentration-dependent response | – | – | Cc1ncc(CO)c(C)c1O [DOP, 4-deoxypyridoxine] | exhibited their activity in substantially the same concentration range | detected in substantially the same concentration range | exhibited their activity in substantially the same concentration range | detected in substantially the same concentration range | –
2 | – | ~250 | – | – | – | could not be observed | could not be observed | CC(=O)c1nc(C(O)C(O)C(O)CO)c[nH]1 (stereo not drawn) [THI, 2-acetyl-4-tetrahydroxybutylimidazole] | exhibited their activity in substantially the same concentration range | – | exhibited their activity in substantially the same concentration range | – | concentration-dependent activity was detected

Reference: US9200309B2, “Method for screening for S1P lyase inhibitors using cultured cells” (Daiichi Sankyo Company, Limited, priority 2010, dated 2015)
